Measurements published in paper PMC7764916, “The Cholinesterase Inhibitory Properties of Stephaniae Tetrandrae Radix” (Molecules, 2020).
Like-named read-outs stand apart in the source and are kept apart here.

Key:
[1] = target: T1, AChE (Mus musculus, UniProt P21836); test: biochemical
T1 construct: The AChE assay medium consisted of brain lysate (5 mg/mL) with testing drugs; from tissue; host or cells: mouse brain (Triton X-100 low-salt lysate)
T1 sequence (P21836 32-614): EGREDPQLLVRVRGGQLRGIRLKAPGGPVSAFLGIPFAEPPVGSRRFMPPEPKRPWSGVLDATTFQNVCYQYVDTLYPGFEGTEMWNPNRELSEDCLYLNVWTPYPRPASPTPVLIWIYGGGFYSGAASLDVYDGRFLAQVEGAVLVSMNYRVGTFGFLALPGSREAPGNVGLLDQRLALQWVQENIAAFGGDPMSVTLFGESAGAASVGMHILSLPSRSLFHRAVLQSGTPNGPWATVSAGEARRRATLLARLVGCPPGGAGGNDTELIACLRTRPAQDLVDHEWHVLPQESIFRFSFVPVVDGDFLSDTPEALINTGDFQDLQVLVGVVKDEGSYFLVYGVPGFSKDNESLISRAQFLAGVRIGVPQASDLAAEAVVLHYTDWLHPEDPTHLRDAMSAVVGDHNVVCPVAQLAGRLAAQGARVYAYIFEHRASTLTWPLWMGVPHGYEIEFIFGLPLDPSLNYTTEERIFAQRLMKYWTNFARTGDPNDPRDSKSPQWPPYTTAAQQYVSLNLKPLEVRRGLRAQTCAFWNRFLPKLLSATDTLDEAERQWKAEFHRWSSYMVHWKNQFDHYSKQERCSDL
Procedure: The extracts and alkaloids of STR were tested for cholinesterase activity using a 96-well microtiter plate (Corning, NY, USA) with a final volume of 200 μL, according to the Ellman method. […] The mixture of brain lysate, Na2HPO4 buffer, and iso-OMPA solution was incubated at 37 °C for 10 min, and then the solutions of DNTB and ATCh were added.
Mouse serum (1: 50 v/v, diluted with precooled low-salt lysis buffer) was prepared for the BChE activity assay. The BChE assay medium consisted of the same composition as the AChE assay medium, except that the brain lysate and iso-OMPA were replaced with diluted serum solution and 0.1 μM BW284c51. The mixture of diluted serum, Na2HPO4 buffer, and BW284c51 solution was incubated at 37 °C for 10 min, and then the solutions of DNTB and ATCh were added. […] The concentration of DMSO in the reaction system of AChE/BChE assay was controlled at 0.5%. […] The protein concentrations were measured using the Bio-Rad Protein Assay kit (Hercules, CA, USA).

[2] = target: T2, BChE (Mus musculus, UniProt Q03311); test: BChE activity assay (Ellman method), mouse serum; assay type: biochemical; conditions: for BChE inhibitory activity (in words): Figure 3; for IC50: alkaloids, Figure 3B
T2 construct: the brain lysate and iso-OMPA were replaced with diluted serum solution and 0.1 μM BW284c51; from tissue; host or cells: mouse serum (diluted 1:50)
T2 sequence (Q03311 30-603): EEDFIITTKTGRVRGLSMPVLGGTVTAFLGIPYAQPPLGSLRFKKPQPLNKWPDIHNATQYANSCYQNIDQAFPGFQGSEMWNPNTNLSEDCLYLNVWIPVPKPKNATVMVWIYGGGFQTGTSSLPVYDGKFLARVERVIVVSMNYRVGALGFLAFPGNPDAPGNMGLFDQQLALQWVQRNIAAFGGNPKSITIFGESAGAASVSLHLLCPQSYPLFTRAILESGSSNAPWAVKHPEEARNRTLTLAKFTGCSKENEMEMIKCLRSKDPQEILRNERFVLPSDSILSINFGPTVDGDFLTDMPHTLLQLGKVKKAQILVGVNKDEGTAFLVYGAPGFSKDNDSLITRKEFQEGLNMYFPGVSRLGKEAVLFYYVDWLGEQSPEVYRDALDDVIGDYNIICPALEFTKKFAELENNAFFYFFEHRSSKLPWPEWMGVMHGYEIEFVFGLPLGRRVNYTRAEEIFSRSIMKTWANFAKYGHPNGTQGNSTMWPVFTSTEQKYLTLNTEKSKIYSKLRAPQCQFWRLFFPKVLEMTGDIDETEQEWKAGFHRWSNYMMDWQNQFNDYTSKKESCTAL
Procedure: Mouse serum (1: 50 v/v, diluted with precooled low-salt lysis buffer) was prepared for the BChE activity assay. The BChE assay medium consisted of the same composition as the AChE assay medium, except that the brain lysate and iso-OMPA were replaced with diluted serum solution and 0.1 μM BW284c51. The mixture of diluted serum, Na2HPO4 buffer, and BW284c51 solution was incubated at 37 °C for 10 min, and then the solutions of DNTB and ATCh were added. […] The concentration of DMSO in the reaction system of AChE/BChE assay was controlled at 0.5%. […] The AChE/BChE inhibitory activity of drugs was calculated as a percentage of the control absorbance value, AChE/BChE inhibition (%) = (1 − absorbance with inhibitor/absorbance without inhibitor) × 100%. […] The protein concentrations were measured using the Bio-Rad Protein Assay kit (Hercules, CA, USA).

[3] = target: T1, AChE; test: Enzyme kinetic analysis of AChE inhibition (Lineweaver–Burk plots); assay type: biochemical; conditions: for type of AChE inhibition: Lineweaver–Burk plots; for Ki: estimated from Lineweaver–Burk plots, ATCh 0.040–0.625 mM
Procedure: Figure 4 The enzyme kinetic analysis of AChE inhibition by fangchinoline and cyclanoline. Different doses of fangchinoline (0.5–5 μM) and cyclanoline (30–120 μM) were added to the AChE reaction system and preincubated at 37 °C with the brain lysate, followed by the addition of a range of doses of ATCh (0.040–0.625 mM). The inhibition constants Ki were estimated from the plots of the slope versus the concentration of tested drugs. Donepezil (25 nM) served as a positive control. The data are expressed as the mean ± SEM (standard error of mean) of three […] assays, each with triplicate samples.
The Michaelis constant (Km), maximum velocity (Vmax), and inhibitory constant (Ki) were used to evaluate the kinetics of fangchinoline and cyclanoline. Lineweaver–Burk plots were then plotted using initial velocities, from which the Km and Vmax values were calculated (the absolute values of horizontal and vertical intercepts were 1/Km and 1/Vmax, respectively). The slopes of reciprocal plots were then plotted against the doses of fangchinoline and cyclanoline, and Ki values were determined as the absolute value of the x-axis intercept. Donepezil was used as a positive control. All experiments were performed in triplicate.

[4] = alkaloids, Figure 3B, read-out: AChE IC50

COc1ccc2cc1Oc1ccc(cc1)C[C@H]1c3cc(c(OC)cc3CCN1C)Oc1c(OC)c(OC)cc3c1[C@H](C2)N(C)CC3 [tetrandrine]
AChE inhibitory activity (in words) ([1]; Figure 3): no inhibitory activity on AChE at the maximal dissolvable concentration
BChE inhibitory activity (in words) [2]: no or little inhibitory activity on BChE

COc1ccc2cc1Oc1ccc(cc1)C[C@H]1c3cc(c(OC)cc3CCN1C)Oc1c(O)c(OC)cc3c1[C@H](C2)N(C)CC3 [fangchinoline]
IC50 ([1]; Figure 5A, ATCh 0.625 mM, read-out: AChE IC50 (single drug, synergy experiment)): 2.12 ± 0.16 µM
IC50 [1, 4]: 2.58 ± 0.28 µM
BChE inhibitory activity (in words) [2]: no inhibitory activity on BChE
type of AChE inhibition [3]: noncompetitive
Ki [3]: 1.79 µM

COc1cc2c(cc1O)[C@@H]1Cc3ccc(OC)c(O)c3C[N@+]1(C)CC2 [cyclanoline]
IC50 [1, 4]: 106 ± 2.29 µM
IC50 [2]: 247 ± 5.46 µM
type of AChE inhibition [3]: noncompetitive
Ki [3]: 72.3 µM

COc1ccc2c3c1O[C@H]1C[C@@H](O)C=C[C@@]31CCN(C)C2 [Galanthamine, galanthamine, reference compound]
IC50 [2]: 49.8 ± 2.5 µM
